Experimental data from patent US20250346629A1, “USE OF D-ENANTIOMERIC PEPTIDE LIGANDS OF MONOMERIC ALPHA-SYNUCLEIN FOR THE THERAPY OF VARIOUS SYNUCLEINOPATHIES” (PRIAVOID GMBH, priority 2021, published 2025).
Square brackets hold non-standard residues; d marks the D form. Peptide text beside a SMILES is read from it.

Assays:
[1] = target: full-length α-syn (Homo sapiens, UniProt P37840); assay: MST measurement of fluorophore-labeled peptides with full-length α-syn (FIG. 10); assay type: binding; conditions: 100 nM labeled peptide, PBS pH 7.4, 25° C., individual measurement
Protocol: The peptides were fluorescence labeled by means of cysteine-maleimide coupling. SVD-1_Cys and SVD 1a_Cys were fluorescence labeled at the C-terminus with a fivefold or tenfold molar excess of TCEP and CF633-PEG2-maleimide (Sigma-Aldrich, USA). The labeling reaction was carried out in 25 mM NaPi, PH 7.0, for 2 h at RT. The labeled peptides were purified at 25° C. using an Agilent 1260 Infinity II System and a C-18 RP-HPLC column (Zorbax 300 SB-C8/SB-C 18, Agilent, USA). The mobile phases consisted of A: water+0.1% TFA, and B: acetonitrile+0.1% TFA. The fluorescence-labeled peptides and proteins were eluted with a gradient of 5-40% (v/v) B in 30 min. The fluorescence-labeled products were fractionated using the absorption wavelength of the fluorophore (CF633: 633 nm) and the pooled samples were subsequently lyophilized and redissolved in the appropriate buffer. The protein concentrations were determined by means of UV-vis and the fluorescence-labeled samples were stored at −20° C.
The experiments for microscale thermophoresis (MST) were carried out using a Monolith NT.115 device (NanoTemper Technologies GmbH, GE). Fluorescence-labeled peptides were diluted in PBS, PH 7.4 to a final concentration of 100 nM. […] The data was evaluated with the thermophoresis effect, using the NT analysis software (version 1.5.41) supplied by the manufacturer. […]

[2] = target: α-syn PFF oligomers (Homo sapiens, UniProt P37840); assay: Decomposition of PFF oligomers (HPLC-SEC, DLS, AFM; FIG. 17); assay type: biochemical; conditions: 100 nM monomer-equivalent PFF oligomers, 400 and 1600 nM SVD-1a, 3 days, 37° C., PBS pH 7.4
Protocol: PFF oligomers were produced as follows. Firstly, insoluble PFF was produced by incubating 300 μM of recombinant α-syn in a LoBind reaction tube (Eppendorf GmbH, GE) with a borosilicate glass bead (d=3.0 mm; Hilgenberg, DE) in 20 mM NaPi, pH 7.0, 150 […] for one week at 37° C. The insoluble PFF was harvested by ultracentrifugation at 100 000×g for 30 min at 4° C., and the pellet was washed several times with 20 mM NaPi, PH 7.0, 150 mM NaCl. The monomer equivalent concentration was determined by measuring the α-syn concentration in the supernatant after the first centrifugation and subtracting this from the start concentration for the fibrillation. The insoluble PFF was resuspended in buffer and frozen at −80° C. with liquid N2. […]
The elimination of PFF oligomers was assessed by SEC and the subsequent detection of the PFF oligomer and monomer peaks. […] The proteins were detected at A214.
The measurements were carried out using a SpectroSize 300 131 (XtalConcepts, GE) device and a sample volume of 1 ml in a sealed quartz cuvette (Hellma Group, GE). […] Data points were recorded every 30 seconds for time-dependent DLS measurements. […]
(A) HPLC-SEC measurement samples were injected onto a Bio SEC-3 column (300 Å, Agilent, USA). The PFF oligomers eluted after approximately 5 min, while the α-syn monomer was detected after approximately 8.6 min. […]

[3] = target: WT α-syn (Homo sapiens, UniProt P37840); assay: Single cycle SPR experiment of WT α-syn on CM5-immobilized peptides (FIG. 8); conditions: 1:1 binding model fit, CM5 chip, PBS pH 7.4, 0.005% Tween-20
Protocol: Each peptide was immobilized on a CM5 sensor chip surface. WT α-syn was injected in a concentration range of 30-500 nM in PBS, PH 7.4, 0.005% (v/v) Tween-20. Regeneration was carried out after every cycle with 2 M Gua-HCl for 2×30 sec. The KDs were determined with a 1:1 binding model fit, as follows: SVD-1a: 15.7 nM; SVD-6a: 14.0 nM; SVD-10a: 12.3 nM.

CC[C@@H](C)[C@@H](NC(=O)[C@@H](Cc1c[nH]cn1)NC(=O)[C@@H](CCC(=O)O)NC(=O)[C@@H](CCC(N)=O)NC(=O)[C@@H](Cc1c[nH]c2ccccc12)NC(=O)[C@@H](Cc1ccc(O)cc1)NC(=O)[C@H](NC(=O)[C@@H](CCC(=O)O)NC(=O)[C@@H](Cc1c[nH]cn1)NC(=O)[C@H](NC(=O)[C@H]1CCCN1C(=O)[C@@H](CC(C)C)NC(=O)[C@H](N)CCCNC(=N)N)[C@H](C)O)[C@H](C)O)C(=O)N[C@H](Cc1c[nH]c2ccccc12)C(=O)N[C@H](Cc1c[nH]cn1)C(=O)N[C@H](C)C(=O)N[C@H](CCCNC(=N)N)C(=O)N[C@H](CCCNC(=N)N)C(=O)N[C@H](CCCNC(=N)N)C(=O)N[C@H](CCCNC(=N)N)C(=O)N[C@H](CCCNC(=N)N)C(N)=O [SVD-1a, rlpthetywqehiwharrrrr] (H-[dR][dL][dP][dT][dH][dE][dT][dY][dW][dQ][dE][dH][dI][dW][dH][dA][dR][dR][dR][dR][dR]-NH2)
Kd [1]: 0.39 µM | effect on PFF oligomers [2]: decomposes the PFF oligomers into α-syn monomers | Kd [3]: 0.0157 µM
